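Interpolation was linear, between the two tested concentrations surrounding the appropriate level; five concentrations were tested over 48 hours in 96-well plates. Here, GI50 denotes the concentration required for 50% inhibition of growth. The concentration for full growth arrest is given as TGI.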

Test in all cases: inhibition of tumour cell growth, NCI panel, 48 h
Assay [1] deals with CAKI-1 renal.
Assay [2] concerns OVCAR-5 ovarian.
Assay [3] deals with UO-31 renal.
Assay [4] relates to NCI-H460 lung.
Assay [5] relates to UACC-62 melanoma.
The test system of assay [6] is M14 melanoma.
In assay [7] the test system is MDA-MB-435.
Assay [8] has as its system COLO 205 colon.
The test system of assay [9] is RXF 393 renal.
For assay [10], the system named is KM12 colon.

Take `CC1=C(C(=O)Nc2ccc(F)c(Cl)c2)C(c2ccccc2Cl)NC(=S)N1` (stereo not given): the GI50 in assay [1] was 37 µM; in assay [2] it was more than 50 µM; in [3], 21.3 µM; in [4], 23.7 µM; in [5], 9.63 µM; in assay [6], 34.9 µM. Also, the GI50 was 30.1 µM in assay [7], 23.9 µM in assay [8], 16.9 µM in assay [9] and 41.9 µM in assay [10]. Moreover, the TGI in [1], in assay [2], in [3], in assay [4], in assay [5] and in assay [6] was more than 50 µM in each case. For the same compound, the TGI in assay [7] is more than 50 µM; in assay [8], more than 50 µM; in [9] it was 37.7 µM; in assay [10] it was more than 50 µM.

As to `O=[N+]([O-])c1ccc(Br)c([N+](=O)[O-])c1`, the GI50 is 0.406 µM in [1]; 1.77 µM in [2]; 0.266 µM in assay [3]; 2.56 µM in [4]; 2.56 µM in [5]; 1.74 µM in assay [6]. In addition, the GI50 in assay [7] was 1.85 µM; in assay [8], 1.72 µM; in assay [9] it was 1.83 µM; in assay [10], 1.8 µM. Besides, the TGI in assay [1] amounted to 0.954 µM; in [2] it was 3.5 µM; in assay [3], 0.779 µM; in [4], 8.72 µM; in [5], 6.87 µM; in assay [6], 3.27 µM. The TGI in assay [7] was determined as 3.58 µM; in assay [8] it was 3.32 µM; in assay [9], 3.36 µM; in assay [10], 3.23 µM.

As to `COC(=O)Nc1nc2ccc(Oc3ccc(NC(=O)Nc4cccc(C(=O)O)c4)cc3)cc2[nH]1`, the GI50 in [1] was more than 23.8 µM; in assay [2] it was 12 µM; in assay [3] it was 15.7 µM; in [4], 7.21 µM; in assay [5], 5.35 µM; in assay [6] it was 6.75 µM. Also, the GI50 in assay [7] was 1.32 µM; in assay [8] it was 6.21 µM; in [9], 3.37 µM; in assay [10], 5.26 µM. In addition, the TGI in assay [1], in assay [2], in assay [3], in [4], in assay [5] and in [6] was more than 25 µM in each case. In addition, the TGI was 6.03 µM in [7], more than 16.5 µM in assay [8], 10.9 µM in assay [9] and more than 21.2 µM in assay [10].

With `CCN(CC)CCCC(C)Nc1cnc(C(=O)Nc2ccc(Cl)c3cccnc23)cn1` (stereo not given), the GI50 in [1] is 1.78 µM; in assay [2] it was 1.83 µM; in assay [3], 1.48 µM; in [4], 2.64 µM; in assay [5] it was 1.85 µM; in assay [6] it was 1.79 µM. Also, the GI50 in assay [7] is 1.81 µM; in assay [8], 1.58 µM; in assay [9], 1.64 µM; in [10], 3.79 µM. Also, the TGI in assay [1] stood at 4.1 µM; in assay [2], 3.6 µM; in [3], 2.9 µM; in assay [4], 6.8 µM; in assay [5], 3.43 µM; in [6], 3.59 µM. The TGI in assay [7] stood at 3.43 µM; in assay [8], 3.23 µM; in assay [9], 3.36 µM; in [10], 13.3 µM.

For the compound `CC[C@@H](C(=O)[C@@H](C)[C@@H](O)[C@H](C)[C@@H]1O[C@@H]([C@@H](CC)C(=O)O)CC[C@@H]1C)C1O[C@]2(C=CC(=O)[C@]3(CC[C@@](C)([C@H]4CC[C@](O)(CC)[C@H](C)O4)O3)O2)[C@H](C)C[C@@H]1C` (stereo not given in full), the GI50 in assay [1] is 0.765 µM; in [2], 0.734 µM; in assay [3], 1.19 µM; in [4] it was 0.408 µM; in [5], 1.29 µM; in assay [6], 1.41 µM. The GI50 in assay [7] is 1.21 µM; in assay [8], 0.159 µM; in [9], 0.0416 µM; in assay [10] it was 0.515 µM. For the same compound, the TGI worked out at 11.8 µM in assay [1]; 21.5 µM in [2]; 11 µM in [3]; 11.3 µM in assay [4]; 2.67 µM in assay [5]; 3.53 µM in [6]. The TGI was found to be 2.8 µM in assay [7], 2.1 µM in assay [8], 1.79 µM in assay [9] and 6 µM in [10].

As for `CC(C)(C)NC(C1=CC(C)(C)c2ccccc2C1=O)c1ccccc1` (stereo not given), the GI50 in [1] is 3.26 µM; in assay [2], 1.82 µM; in assay [3], 1.18 µM; in assay [4] it was 1.93 µM; in assay [5] it was 1.3 µM; in assay [6], 1.52 µM. Also, the GI50 in [7] was 1.98 µM; in [8] it was 1.35 µM; in assay [9], 1.22 µM; in assay [10] it was 1.42 µM. The TGI is 13.4 µM in assay [1]; 3.78 µM in assay [2]; 2.45 µM in [3]; 4.58 µM in assay [4]; 2.82 µM in assay [5]; 2.85 µM in assay [6]. Besides, the TGI in [7] was found to be 5.4 µM; in assay [8] it was 2.63 µM; in assay [9] it was 2.53 µM; in assay [10], 2.73 µM.

Consider `CC1=C[C@H]2c3c(c(O)c(O)c4oc5c(C)cccc5c(=O)c34)[C@H](c3cc(O)c(O)c4oc5c(C)cccc5c(=O)c34)[C@H]2C(C)(C)C1`, for which the GI50 was 1.5 µM in assay [1]; 2.65 µM in assay [2]; 1.23 µM in assay [3]; 0.825 µM in [4]; 1.6 µM in assay [5]; 1.52 µM in assay [6]. The GI50 in [7] was 1.63 µM; in [8], 2.41 µM; in [9], 1.22 µM; in assay [10] it was 2.56 µM. Also, the TGI came out at 9.08 µM in assay [1]; 10.6 µM in assay [2]; 2.78 µM in assay [3]; 3.02 µM in assay [4]; 3.27 µM in [5]; 5.87 µM in assay [6]. Moreover, the TGI in [7] was 3.87 µM; in assay [8] it was 6.8 µM; in assay [9] it was 3.26 µM; in assay [10], 8.33 µM.

The values are drawn from PubChem BioAssay (NCI).
